Laboratory results as given in patent US6610675B1 (priority 1980, dated 2003).

Legend:
Format in all cases: in vivo, rat
thymus weight in rats = test: Thymus inhibition testing (subcutaneous administration); details: for Body weight gain / Thymus / Thymus Inhibition: Table VII, three days
Summary of the method: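 Male Sprague-Dawley rats were dosed systemically. On the fifth day, 48 hours after the last treatment, animals were sacrificed and thymus weights recorded.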

[1] = tested on: ear swelling induced by croton oil; test: Ear edema test; details: 1 mg/kg topical, 6 hr
Experimental: The test animals were Sprague/Dawley rats weighing approximately 150 grams each. In treatment groups, selected amounts of the test compound were dissolved in acetone containing 5% croton oil and 50 microliters of the solution were applied to the inner surface of the right ear of the rats. A control group was identically treated with vehicle only, i.e. 5% croton oil in acetone. Six hours after croton oil challenge, a constant region of each ear was removed by dissection under anesthesia. Then, 48 hours after steroid treatment, the animals were sacrificed and the thymi and adrenals were removed and weighed. The test results showing the inhibitory effect of topically applied steroids on the ear swelling induced by croton oil are summarized in Table II below.

[2] = tested on: granulation tissue formation caused by implantation of cotton pellets; test: Granuloma formation test (local cotton pellet granuloma assay)
Experimental: The test compound was dissolved in acetone and aliquots of varying concentrations were injected into cotton pellets. The pellets were dried and then one pellet was implanted beneath the skin of each test rat. Six days later, the animals were sacrificed and the granulation tissue (granuloma) which formed in and around the implanted pellet was removed, dried and weighed. In addition, the thymi and adrenals were removed and weighed.

SMILES: CCCC(=O)O[C@]1(C(=O)CO)CC[C@H]2[C@@H]3CCC4=CC(=O)CC[C@]4(C)[C@H]3[C@@H](O)C[C@@]21C [Hydrocortisone 17-butyrate, reference compound]
- Body weight gain (thymus weight in rats; 0.3 mg/kg/day s.c.): 17.0 ± 0.8 g
- Thymus (thymus weight in rats; 0.3 mg/kg/day s.c.): 441 ± 27 mg
- Thymus Inhibition (thymus weight in rats; 0.3 mg/kg/day s.c.): 6.4%
- Body weight gain (thymus weight in rats; 1 mg/kg/day s.c.): 11.8 ± 0.8 g
- Thymus (thymus weight in rats; 1 mg/kg/day s.c.): 323 ± 16 mg
- Thymus Inhibition (thymus weight in rats; 1 mg/kg/day s.c.): 31.4%
- Body weight gain (thymus weight in rats; 3 mg/kg/day s.c.): 7.3 ± 0.5 g
- Thymus (thymus weight in rats; 3 mg/kg/day s.c.): 166 ± 5 mg
- Thymus Inhibition (thymus weight in rats; 3 mg/kg/day s.c.): 64.8%
- Body weight gain (thymus weight in rats; 10 mg/kg/day s.c.): -5.0 ± 1.1 g
- Thymus (thymus weight in rats; 10 mg/kg/day s.c.): 65 ± 5 mg
- Thymus Inhibition (thymus weight in rats; 10 mg/kg/day s.c.): 86.2%
- TED40 (thymus weight in rats; Table X, dose required to achieve 40% inhibition of thymi weight, subcutaneous): 1.3 mg
- TED50 (thymus weight in rats; Table X, dose required to achieve 50% inhibition of thymi weight, subcutaneous): 2.0 mg
- TED40 (thymus weight in rats; Table XII, thymus inhibition effect, subcutaneously): 1.3 mg/kg
- Ear Weight, % Increase [1]: −3.6 ± 3.5 %
- Ear Weight, % Inhibition [1]: 106.0%
- Ear Weight, Inflamed Ear [1]: 50.0 ± 2.3 mg
- Ear Weight, Untreated Ear [1]: 52.0 ± 2.5 mg
- Body wt. gain ([2]; Table III, 1 mg/pellet): 33.4 ± 1.4 g
- Granulation tissue Dry wt. ([2]; Table III, 1 mg/pellet): 32.2 ± 5.0 mg/100 g body wt.
- Granulation tissue Inhibition ([2]; Table III, 1 mg/pellet): 26.3%
- Body wt. gain ([2]; Table III, 3 mg/pellet): 15.9 ± 1.4 g
- Granulation tissue Dry wt. ([2]; Table III, 3 mg/pellet): 21.6 ± 2.2 mg/100 g body wt.
- Granulation tissue Inhibition ([2]; Table III, 3 mg/pellet): 50.6%
- Body wt. gain ([2]; Table III, 10 mg/pellet): 4.9 ± 1.0 g
- Granulation tissue Dry wt. ([2]; Table III, 10 mg/pellet): 29.2 ± 3.1 mg/100 g body wt.
- Granulation tissue Inhibition ([2]; Table III, 10 mg/pellet): 33.2%
- Body wt. gain ([2]; Table IV, 300 μg/pellet): 26.2 ± 1.7 g
- Granulation tissue Dry wt. ([2]; Table IV, 300 μg/pellet): 34.0 ± 5.3 mg
- Granulation tissue Dry wt. Inhibition ([2]; Table IV, 300 μg/pellet): 58.1%
- Granulation tissue Wet wt. ([2]; Table IV, 300 μg/pellet): 333 ± 21 mg
- Granulation tissue Wet wt. Inhibition ([2]; Table IV, 300 μg/pellet): 41.2%
- Thymus wt. ([2]; Table IV, 300 μg/pellet): 353 ± 37 mg
- Thymus wt. (Decrease %) ([2]; Table IV, 300 μg/pellet): (20.7) %
- Body wt. gain ([2]; Table IV, 1000 μg/pellet): 26.2 ± 1.2 g
- Granulation tissue Dry wt. ([2]; Table IV, 1000 μg/pellet): 35.3 ± 4.2 mg
- Granulation tissue Dry wt. Inhibition ([2]; Table IV, 1000 μg/pellet): 56.5%
- Granulation tissue Wet wt. ([2]; Table IV, 1000 μg/pellet): 366 ± 24 mg
- Granulation tissue Wet wt. Inhibition ([2]; Table IV, 1000 μg/pellet): 35.3%
- Thymus wt. ([2]; Table IV, 1000 μg/pellet): 99 ± 7 mg
- Thymus wt. (Decrease %) ([2]; Table IV, 1000 μg/pellet): (77.8) %
- Body wt. gain ([2]; Table IV, 3000 μg/pellet): 6.7 ± 2.2 g
- Granulation tissue Dry wt. ([2]; Table IV, 3000 μg/pellet): 28.0 ± 2.7 mg
- Granulation tissue Dry wt. Inhibition ([2]; Table IV, 3000 μg/pellet): 65.5%
- Granulation tissue Wet wt. ([2]; Table IV, 3000 μg/pellet): 329 ± 14 mg
- Granulation tissue Wet wt. Inhibition ([2]; Table IV, 3000 μg/pellet): 41.9%
- Thymus wt. ([2]; Table IV, 3000 μg/pellet): 58 ± 5 mg
- Thymus wt. (Decrease %) ([2]; Table IV, 3000 μg/pellet): (87.0) %
- Body wt. gain ([2]; Table IV, 10000 μg/pellet): -2.0 ± 2.4 g
- Granulation tissue Dry wt. ([2]; Table IV, 10000 μg/pellet): 27.2 ± 2.4 mg
- Granulation tissue Dry wt. Inhibition ([2]; Table IV, 10000 μg/pellet): 66.5%
- Granulation tissue Wet wt. ([2]; Table IV, 10000 μg/pellet): 311 ± 7 mg
- Granulation tissue Wet wt. Inhibition ([2]; Table IV, 10000 μg/pellet): 45.1%
- Thymus wt. ([2]; Table IV, 10000 μg/pellet): 46 ± 7 mg
- Thymus wt. (Decrease %) ([2]; Table IV, 10000 μg/pellet): (89.7) %
- ED50 ([2]; Table XII, anti-inflammatory effect in cotton pellet granuloma): 480 μg/pellet
- ED60 ([2]; dose causing 60% inhibition of granulation tissue weight): 1015 μg/pellet
